Experimental data from PubChem BioAssay AID1963986 (Molecular Pharmacology Branch, DTP, NCI, 2024).

Test system: 171881-019-R-J1-PDC tumor spheroid viability
Experiment: Anticancer human tumor 171881-019-R-J1-PDC patient-derived invasive breast carcinoma cell line growth inhibition [PI3K]
Settings: spheroids with HUVEC and MSC; for IC50: curve of first compound; for viability, T/C: stronger effect = lower value
Outline: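 Viability of mixed-cell spheroids was determined after exposure to pairwise combinations, one partner being inavolisib, alpelisib, duvelisib or copanlisib. Highest tested concentration matched clinical Cmax where known and 10 microM where not, descending in half-log steps.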

[1] = second compound 0.00316 µM, first compound 0.0316 µM
[2] = second compound 0.00316 µM, first compound 0.1 µM
[3] = second compound 0.01 µM, first compound 0.0316 µM
[4] = second compound 0.01 µM, first compound 0.1 µM
[5] = second compound 0.0316 µM, first compound 0.0316 µM
[6] = second compound 0.0316 µM, first compound 0.1 µM
[7] = second compound 0.1 µM, first compound 0.0316 µM
[8] = second compound 0.1 µM, first compound 0.1 µM
[9] = second compound 0.316 µM, first compound 0.0316 µM
[10] = second compound 0.316 µM, first compound 0.1 µM
[11] = second compound 1 µM, first compound 0.0316 µM
[12] = second compound 1 µM, first compound 0.1 µM
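Further: spheroids exposed to compound for 7 days before viability read.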
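Wherever viability, T/C is given: 100% = DMSO vehicle-treated spheroids.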

Q: CC(C)n1nc(-c2ccc3oc(N)nc3c2)c2c(N)ncnc21 + COc1c(OCCCN2CCOCC2)ccc2c3n(c(=NC(=O)c4cnc(N)nc4)nc12)CCN3 was tested. Which IC50 (second compound 0.00316 µM) did it give?
A: Its IC50 is 3.55 nM.

Q: And the IC50 (second compound 0.01 µM)?
A: The IC50 was < 0.316 nM.

Q: What about the IC50 (second compound 0.0316 µM) of the same molecule?
A: The IC50 was < 0.316 nM.

Q: And the IC50 (second compound 0.1 µM)?
A: Its IC50 is < 0.316 nM.

Q: What about the IC50 (second compound 0.316 µM) of the same molecule?
A: The IC50 was < 0.316 nM.

Q: What about the IC50 (second compound 1 µM) of the same molecule?
A: The IC50 was < 0.316 nM.

Q: What about the viability, T/C (second compound 0.00316 µM, first compound 0.000316 µM) of the same molecule?
A: Its viability, T/C is 61.1%.

Q: What about the viability, T/C (second compound 0.00316 µM, first compound 0.001 µM) of the same molecule?
A: Its viability, T/C is 66.3%.

Q: And the viability, T/C (second compound 0.00316 µM, first compound 0.00316 µM)?
A: Its viability, T/C is 47.6%.

Q: What about the viability, T/C (second compound 0.00316 µM, first compound 0.01 µM) of the same molecule?
A: Its viability, T/C is 36.1%.

Q: What about the viability, T/C [1] of the same molecule?
A: Its viability, T/C is 13.1%.

Q: What about the viability, T/C [2] of the same molecule?
A: Its viability, T/C is 3.55%.

Q: What about the viability, T/C (second compound 0.01 µM, first compound 0.000316 µM) of the same molecule?
A: Its viability, T/C is 46%.

Q: And the viability, T/C (second compound 0.01 µM, first compound 0.001 µM)?
A: Its viability, T/C is 45.8%.

Q: And the viability, T/C (second compound 0.01 µM, first compound 0.00316 µM)?
A: The viability, T/C was 36.4%.

Q: And the viability, T/C (second compound 0.01 µM, first compound 0.01 µM)?
A: Its viability, T/C is 19.3%.

Q: What about the viability, T/C [3] of the same molecule?
A: Its viability, T/C is 8.72%.

Q: What about the viability, T/C [4] of the same molecule?
A: Its viability, T/C is 2.78%.

Q: And the viability, T/C (second compound 0.0316 µM, first compound 0.000316 µM)?
A: The viability, T/C was 23.6%.

Q: What about the viability, T/C (second compound 0.0316 µM, first compound 0.001 µM) of the same molecule?
A: Its viability, T/C is 22.3%.

Q: What about the viability, T/C (second compound 0.0316 µM, first compound 0.00316 µM) of the same molecule?
A: Its viability, T/C is 16%.

Q: What about the viability, T/C (second compound 0.0316 µM, first compound 0.01 µM) of the same molecule?
A: The viability, T/C was 8.85%.

Q: What about the viability, T/C [5] of the same molecule?
A: Its viability, T/C is 4.14%.

Q: What about the viability, T/C [6] of the same molecule?
A: Its viability, T/C is 2.34%.

Q: And the viability, T/C (second compound 0.1 µM, first compound 0.000316 µM)?
A: Its viability, T/C is 8.49%.

Q: What about the viability, T/C (second compound 0.1 µM, first compound 0.001 µM) of the same molecule?
A: The viability, T/C was 7.85%.

Q: And the viability, T/C (second compound 0.1 µM, first compound 0.00316 µM)?
A: Its viability, T/C is 5.37%.

Q: And the viability, T/C (second compound 0.1 µM, first compound 0.01 µM)?
A: Its viability, T/C is 3.59%.

Q: What about the viability, T/C [7] of the same molecule?
A: The viability, T/C was 2.66%.

Q: And the viability, T/C [8]?
A: Its viability, T/C is 1.6%.

Q: What about the viability, T/C (second compound 0.316 µM, first compound 0.000316 µM) of the same molecule?
A: Its viability, T/C is 2.47%.

Q: What about the viability, T/C (second compound 0.316 µM, first compound 0.001 µM) of the same molecule?
A: Its viability, T/C is 2.41%.

Q: And the viability, T/C (second compound 0.316 µM, first compound 0.00316 µM)?
A: The viability, T/C was 2.58%.

Q: And the viability, T/C (second compound 0.316 µM, first compound 0.01 µM)?
A: The viability, T/C was 1.51%.

Q: And the viability, T/C [9]?
A: Its viability, T/C is 1.36%.

Q: And the viability, T/C [10]?
A: The viability, T/C was 1.1%.

Q: What about the viability, T/C (second compound 1 µM, first compound 0.000316 µM) of the same molecule?
A: Its viability, T/C is 1.08%.

Q: What about the viability, T/C (second compound 1 µM, first compound 0.001 µM) of the same molecule?
A: The viability, T/C was 0.86%.

Q: What about the viability, T/C (second compound 1 µM, first compound 0.00316 µM) of the same molecule?
A: The viability, T/C was 1.3%.

Q: And the viability, T/C (second compound 1 µM, first compound 0.01 µM)?
A: The viability, T/C was 1.16%.

Q: And the viability, T/C [11]?
A: The viability, T/C was 1.03%.

Q: And the viability, T/C [12]?
A: Its viability, T/C is 1.05%.

Q: With CC1(C)CCC(CN2CCN(c3ccc(C(=O)NS(=O)(=O)c4ccc(NCC5CCOCC5)c([N+](=O)[O-])c4)c(Oc4cnc5[nH]ccc5c4)c3)CC2)=C(c2ccc(Cl)cc2)C1 + COc1c(OCCCN2CCOCC2)ccc2c3n(c(=NC(=O)c4cnc(N)nc4)nc12)CCN3 as the molecule, how does the IC50 (second compound 0.00316 µM) read?
A: The IC50 was > 10000 nM.

Q: And the IC50 (second compound 0.01 µM)?
A: The IC50 was 1070 nM.

Q: What about the IC50 (second compound 0.0316 µM) of the same molecule?
A: Its IC50 is < 31.6 nM.

Q: What about the IC50 (second compound 0.1 µM) of the same molecule?
A: The IC50 was < 31.6 nM.

Q: And the IC50 (second compound 0.316 µM)?
A: The IC50 was < 31.6 nM.

Q: And the IC50 (second compound 1 µM)?
A: The IC50 was < 31.6 nM.

Q: What about the viability, T/C [1] of the same molecule?
A: Its viability, T/C is 67.9%.

Q: And the viability, T/C [2]?
A: Its viability, T/C is 71.5%.

Q: What about the viability, T/C (second compound 0.00316 µM, first compound 0.316 µM) of the same molecule?
A: The viability, T/C was 76.5%.

Q: What about the viability, T/C (second compound 0.00316 µM, first compound 1 µM) of the same molecule?
A: The viability, T/C was 75.8%.

Q: And the viability, T/C (second compound 0.00316 µM, first compound 3.16 µM)?
A: Its viability, T/C is 50.7%.

Q: What about the viability, T/C (second compound 0.00316 µM, first compound 10 µM) of the same molecule?
A: The viability, T/C was 56.9%.

Q: And the viability, T/C [3]?
A: Its viability, T/C is 50.3%.

Q: And the viability, T/C [4]?
A: Its viability, T/C is 54.2%.

Q: And the viability, T/C (second compound 0.01 µM, first compound 0.316 µM)?
A: Its viability, T/C is 52.1%.

Q: What about the viability, T/C (second compound 0.01 µM, first compound 1 µM) of the same molecule?
A: The viability, T/C was 50.6%.

Q: And the viability, T/C (second compound 0.01 µM, first compound 3.16 µM)?
A: Its viability, T/C is 36.4%.

Q: And the viability, T/C (second compound 0.01 µM, first compound 10 µM)?
A: The viability, T/C was 46.5%.

Q: What about the viability, T/C [5] of the same molecule?
A: Its viability, T/C is 31.2%.

Q: What about the viability, T/C [6] of the same molecule?
A: The viability, T/C was 27.1%.

Q: What about the viability, T/C (second compound 0.0316 µM, first compound 0.316 µM) of the same molecule?
A: The viability, T/C was 26.7%.

Q: And the viability, T/C (second compound 0.0316 µM, first compound 1 µM)?
A: The viability, T/C was 31.9%.

Q: And the viability, T/C (second compound 0.0316 µM, first compound 3.16 µM)?
A: The viability, T/C was 27.6%.

Q: And the viability, T/C (second compound 0.0316 µM, first compound 10 µM)?
A: Its viability, T/C is 27.7%.

Q: What about the viability, T/C [7] of the same molecule?
A: Its viability, T/C is 9.62%.

Q: What about the viability, T/C [8] of the same molecule?
A: The viability, T/C was 8.56%.

Q: What about the viability, T/C (second compound 0.1 µM, first compound 0.316 µM) of the same molecule?
A: Its viability, T/C is 8.91%.

Q: What about the viability, T/C (second compound 0.1 µM, first compound 1 µM) of the same molecule?
A: Its viability, T/C is 8.46%.

Q: What about the viability, T/C (second compound 0.1 µM, first compound 3.16 µM) of the same molecule?
A: The viability, T/C was 8.91%.

Q: And the viability, T/C (second compound 0.1 µM, first compound 10 µM)?
A: Its viability, T/C is 7.62%.

Q: What about the viability, T/C [9] of the same molecule?
A: Its viability, T/C is 2.51%.

Q: What about the viability, T/C [10] of the same molecule?
A: Its viability, T/C is 1.88%.

Q: And the viability, T/C (second compound 0.316 µM, first compound 0.316 µM)?
A: The viability, T/C was 2.5%.

Q: And the viability, T/C (second compound 0.316 µM, first compound 1 µM)?
A: Its viability, T/C is 2.1%.

Q: And the viability, T/C (second compound 0.316 µM, first compound 3.16 µM)?
A: Its viability, T/C is 1.72%.

Q: And the viability, T/C (second compound 0.316 µM, first compound 10 µM)?
A: The viability, T/C was 1.63%.

Q: What about the viability, T/C [11] of the same molecule?
A: Its viability, T/C is 1.35%.

Q: And the viability, T/C [12]?
A: Its viability, T/C is 0.89%.

Q: What about the viability, T/C (second compound 1 µM, first compound 0.316 µM) of the same molecule?
A: The viability, T/C was 1.13%.

Q: And the viability, T/C (second compound 1 µM, first compound 1 µM)?
A: Its viability, T/C is 0.95%.

Q: And the viability, T/C (second compound 1 µM, first compound 3.16 µM)?
A: Its viability, T/C is 1.02%.

Q: And the viability, T/C (second compound 1 µM, first compound 10 µM)?
A: Its viability, T/C is 0.92%.
